The text below walks through data of patent US9446019B2, “Sparstolonin B based pharmaceutical agent for neuroblastoma treatment” (University of South Carolina, priority 2013, dated 2016).

In assay [1] the test system is human neuroblastoma cell lines (SH-SY5Y, SKNF-1, NGP, IMR-32 and SK-N-BE(2) cells). Put plainly: MTT cell viability assay. Type of assay: cell-based. From the text: Human neuroblastoma cell lines (SH-SY5Y, IMR-32, SK-N-BE(2) and SKNF-1 cells) were obtained from The American Type Culture Collection (ATCC; Manassas, Va.), and NGP cells were kind gift from Garrett M. Brodeur (The Children's Hospital of Philadelphia, Philadelphia, Pa.). All cell lines were maintained in complete Dulbecco's Modified Eagle's Medium (DMEM) supplemented with 10% fetal bovine serum (FBS; Atlanta Biologicals, Lawrenceville, Ga.) and 1× antibiotic-antimycotic solution (containing 100 U/ml penicillin, 100 μg/ml streptomycin and 0.25 μg/ml amphotericin B), and grown at 37° C. in a humidified incubator with 5% CO2. Stock solution of SsnB was prepared in dimethyl sulfoxide (DMSO). Cells treated with different concentrations of SsnB in DMEM with 10% FBS were grown for subsequent days. Cells treated with equal volume of DMSO were used as control.
The viability of SsnB-treated cells was determined by MTT assay following manufacturer's instructions (Roche diagnostics corporation, Indianapolis, Ind.). Briefly, cells (1×10^4 cells/well) grown in 96-well cell culture plate were incubated with or without SsnB in 100 μl of complete culture medium with 10% FBS. After treatments, cells were incubated with 10 μl of MTT reagent for 4 h and then incubated overnight in solubilization buffer (100 μl) at 37° C. Absorbance of the formazan product was read at 575 nm in spectramax spectrophotometer (Molecular Devices, Sunnyvale, Calif.). A reference wavelength of 690 nm was used to detect background. The measured absorption directly correlated with the number of viable cells in culture. The experiments were performed in triplicate and repeated at least three times.
MTT assay was carried out to examine the effects of SsnB on viability of all the above listed neuroblastoma cells. After 2 days (SH-SY5Y and IMR-32), 3 days (NGP cells) or 4 days (SKNF-1 and SK-N-BE(2) cells) treatment with SsnB (1, 5, 10 and 20 μM), MTT cell viability assays were performed.
Background: Tetrazolium dyes change colour on reduction, which living cells bring about.

Assay [2] deals with neuroblastoma cells. Put plainly: TUNEL assay for DNA fragmentation in cells. The assay is classed as cell-based, human. From the text: Increased levels of ROS are known to induce oxidative stress which in turn cleaves DNA that leads to cell death. SsnB-induced DNA fragmentation in neuroblastoma cells was examined by terminal deoxynucleotidyl transferase dUTP nick end labeling (TUNEL) assay. In this assay, nicked DNA is identified by the addition of fluorophore-labeled dUTPs by enzyme terminal deoxynucleotidyl transferase (TdT) to the terminal ends of damaged DNA in apoptotic cells. The TUNEL-positive cells were quantitated by ImageJ programme and plotted. […] However, such TUNEL-positive cells were not detected in DMSO- or SsnB (1 μM)-treated cells.

Assay [3] concerns p53 in SH-SY5Y cells. Put plainly: p53 expression by Western blotting. The assay is classed as cell-based, human. The note with it: SsnB 10 μM. The protocol: After treatment with SsnB, cells were collected, washed with 1×PBS, and lysed with 1× cell lysis buffer (Cell Signaling Technology, Danvers, Mass.) containing phenylmethylsulfonyl fluoride (PMSF) and protease inhibitors (aprotinin and leupeptin) for 30 min on ice, and centrifuged at 12000×rpm for 10 min at 4° C. Supernatant (total cell protein) was collected and stored at −80° C. Protein concentration was determined by bicinchoninic acid method using BCA protein assay kit (Pierce/ThermoScientific, Waltham, Mass.). Equal amount of proteins were diluted with 5× Laemmli samples loading buffer and boiled for five minutes. The proteins were subjected to sodium dodecyl sulfate (SDS)-polyacrylamide gel electrophoresis and analyzed by Western blots. Briefly, after electrophoresis, proteins were transferred on polyvinylidene difluoride (PVDF) membrane at 100 volt for 3 h in cold room. […] Signals were detected by chemiluminiscence detection kit (Pierce/Thermo Fisher Scientific, Rockford, Ill.). […]
At cellular level, mitochondria- or receptor (Fas/FasL)-mediated pathways activate caspase signaling cascade which in turn induces DNA damage and initiates programmed cell death (apoptosis). […] The number of cleaved caspase-3 positive cells were quantitated by ImageJ programme and plotted. […]

For assay [4], the system named is SK-N-BE(2) and SH-SY5Y cells. Put plainly: Two layer soft agarose colony formation assay. The note with it: SsnB 10 μM, 45 days. The assay is classed as cell-based, human. On the procedure: A two layer soft agarose assay system was used in these studies. Approximately 1×10^4 cells were suspended in 0.35% agarose in DMEM with 10% FBS, and were gently laid on the bottom agarose layer containing 0.8% agarose with DMEM+10% FBS in 35 mm^2 cell culture dishes. Once solidified, the dishes were incubated at 37° C. in a humidified chamber with 5% CO2. Next day, 500 μl of complete cell culture medium with respective concentrations of SsnB was added, and cells were allowed to grow for 45 days in an incubator chamber. Fresh medium with respective concentrations of SsnB was added to the dishes in every 5 days. Cells treated with equal volume of DMSO were used as control. At the end of experiments, cells were stained with 0.1% crystal violet and cell colonies (more than 15 cells per colony) were counted under the light microscope.
The anti-proliferative activity of SsnB to affects the tumor progression property of neuroblastoma cells was tested by performing two layer agarose gel colony formation assays. Agarose gel colony formation assay is an anchorage-independent in vitro cell transformation assay, and mimics the process of in vivo carcinogenesis. Neuroblastoma cells (N-myc amplified cell, SK-N-BE(2), and N-myc nonamplified cell, SH-SY5Y) were grown in agarose in presence or absence of SsnB (1 μM and 10 μM) and after 45 days the number of colonies was counted.

Where [5] appears, read: Homo sapiens, MTT, 2 days (SH-SY5Y, IMR-32), 3 days (NGP), 4 days (SKNF-1, SK-N-BE(2)), range over the cell lines.

With `O=c1occ2c3c(ccc(O)c13)Oc1ccc(O)cc1-2` [SsnB, 8,5′-dihydroxy-4-phenyl-5,2′-oxidoisocoumarin], the IC20 (as a rule, the point of the concentration-response curve where the effect stands at 20%) in assay [1] (setting [5]) was in the range of 6 to 8 µM. Besides, the IC50 – broadly, the concentration needed to halve the response being measured – in assay [1] (setting [5]) was in the range of 10 to 12 µM. Further, the “sensitivity towards SsnB treatment” value in assay [1] (NGP cell) is recorded as “moderately sensitive”; in assay [1] (SH-SY5Y and IMR-32 cells) it was “most sensitive”; in assay [1] (SKNF-1 and SK-N-BE(2) cell lines), “least sensitive”. Also, in assay [1] (SsnB 1 μM or 5 μM, p>0.05), the “cell survival vs DMSO” value was “No significant difference in cell survival”. The neuroblastoma cell death in assay [1] (SsnB 10 μM alone, MTT, range over cell lines (FIG. 5A)) is 40-60%. The “cell viability vs DMSO” value in assay [1] (SsnB at and above 10 μM, p<0.05) was “significantly reduced the viability”. The “number of TUNEL-positive cells vs control” value is recorded as “almost similar to DMSO-treated samples” in assay [2] (SsnB 1 μM, nonsignificant) and “significantly higher” in assay [2] (SsnB 10 μM, all neuroblastoma cells). Also, in assay [3], the “p53 expression vs DMSO” value is listed as “Increased expression of p53”. In assay [4] (vs control and SsnB 1 μM), the size of colonies entry was “significantly smaller”. The “colony formation capability (number of colonies)” value in assay [4] (p<0.05 vs control) is reported as “significantly inhibited the colony formation capability”.
